From patent publication US10662205B2, “Cyclic boronic acid ester derivatives and therapeutic uses thereof” (priority 2014, dated 2020) come the findings set out here.

In experiment [1] the test system is KP1005 (CTX-M-14). Nature of the experiment: Tigemonam MIC of test strain.
The subject of experiment [2] is KP1009 (CTX-M-15). In words: Tigemonam MIC of test strain.
Experiment [3] has as its system ec308 (SHV-5). In words: Tigemonam MIC of test strain.
For experiment [4], the system named is KP1010 (SHV-12). In words: Tigemonam MIC of test strain.
Experiment [5] concerns ec302 (TEM-10). Nature of the experiment: Tigemonam MIC of test strain.
The subject of the next experiment is ECL1002. Nature of the experiment: Tigemonam MIC of test strain.
Experiment [6] concerns EC1010 (CMY-6). Nature of the experiment: Tigemonam MIC of test strain.
The subject of another experiment is PAM1032/KPC-2. Nature of the experiment: Biapenem MIC. Format: cell-based. The following applies: Pseudomonas aeruginosa; PAM1032 with KPC-2 plasmid. As for the experimental part:
(§1) Efflux of BLIs from Pseudomonas aeruginosa by the MexAB-OprM efflux pump was also evaluated. The plasmid expressing the gene encoding KPC-2 was introduced into two strains of P. aeruginosa, PAM1032 and PAM1154 that overexpressed or lacked MexAB-OprM, respectively. Due to expression of KPC-2 both strains became resistant to biapenem. […] Potency of BLIs to potentiate biapenem in these strains was determined. […] The ratio of MPC64 values for each BLI in PAM1032/KPC-2 (efflux proficient) and PAM1154/KPC-2 (efflux deficient) was determined to generate the Efflux Index (EI).

The next experiment has as its system PAM1154/KPC-2. Nature of the experiment: Biapenem MIC. Format: cell-based. The following applies: Pseudomonas aeruginosa; PAM1154 with KPC-2 plasmid. Here is the method:
as §1

The subject of experiment [7] is KP1004 (KPC-2). Nature of the experiment: Biapenem MIC of test strain. The settings on record: read-out: Biapenem MIC.
The test system of a further experiment is KP1086 (OXA-48). In words: Biapenem MIC of test strain. The settings on record: read-out: Biapenem MIC.
Experiment [8] deals with KP1005 (CTX-M-14). Nature of the experiment: organism not typed. Format: cell-based. The settings on record: read-out: Aztreonam MIC.
The test system of experiment [9] is KP1009 (CTX-M-15). In words: organism not typed. The settings on record: read-out: Aztreonam MIC. Format: cell-based.
Experiment [10] relates to ec308 (SHV-5). Nature of the experiment: Aztreonam MIC of test strain. The class given is cell-based.
Experiment [11] has as its system KP1010 (SHV-12). Nature of the experiment: Aztreonam MIC of test strain. The class given is cell-based.
For experiment [12], the system named is ec302 (TEM-10). Nature of the experiment: Aztreonam MIC of test strain. Format: cell-based.
The test system of experiment [13] is KP1004 (KPC-2). Nature of the experiment: organism not typed. The class given is cell-based. The following applies: read-out: Aztreonam MIC.
Experiment [14] deals with EC1010 (CMY-6). In words: Aztreonam MIC of test strain. Format: cell-based.

For the compound `CC1(C)[C@H](NC(=O)/C(=N\OCC(=O)O)c2csc(N)n2)C(=O)N1OS(=O)(=O)O` [Tigemonam], the “Tigemonam MIC” value is over 64 µg/mL in the experiment on KP1005 (CTX-M-14) [1]; over 64 µg/mL in the experiment with KP1009 (CTX-M-15) [2]; over 64 µg/mL in the experiment on ec308 (SHV-5) [3]; over 64 µg/mL with KP1010 (SHV-12) [4]; over 64 µg/mL in the experiment with ec302 (TEM-10) [5]; 32 µg/mL with ECL1002. Besides, the “Tigemonam MIC” value in the experiment on EC1010 (CMY-6) [6] came out at 16 µg/mL.

What is called MIC is the smallest concentration in the dilution series that meets the test's criterion for growth inhibition. Regarding `C[C@@H](O)[C@H]1C(=O)N2C(C(=O)[O-])=C(SC3Cn4cnc[n+]4C3)[C@H](C)[C@H]12` (stereo partly drawn) [Biapenem], the MIC in the experiment with PAM1032/KPC-2 was determined as 32 µg/mL; in the experiment on PAM1154/KPC-2, 32 µg/mL; in the experiment on KP1004 (KPC-2) [7], 32 µg/mL; in the experiment with KP1086 (OXA-48), 16 µg/mL.

For `C[C@H]1[C@H](NC(=O)/C(=N\OC(C)(C)C(=O)O)c2csc(N)n2)C(=O)N1S(=O)(=O)O` [Aztreonam], the minimal inhibitory concentration (MIC) with KP1005 (CTX-M-14) [8] was over 128 µg/mL; in the experiment on KP1009 (CTX-M-15) [9], over 128 µg/mL; in the experiment with ec308 (SHV-5) [10], over 128 µg/mL; in the experiment with KP1010 (SHV-12) [11], 64 µg/mL; in the experiment with ec302 (TEM-10) [12] it was 128 µg/mL; in the experiment on KP1004 (KPC-2) [13], over 128 µg/mL. In addition, the MIC with EC1010 (CMY-6) [14] was over 128 µg/mL.
